Reference: patent publication US20200237937A1, “COMPOSITIONS AND METHODS FOR ASSESSING […] PATHOLOGY” (Navidea Biopharmaceuticals, Inc., priority 2019, published 2020)
Read-outs that look alike come from different tables or passages of the source.

What was measured:
mannose receptor (CD206) [1] = target: T1, mannose receptor (CD206) (Homo sapiens, UniProt P22897)
Protocol: (§1) The mass dose of tilmanocept injected into the subjects varied from 125 μg to 400 μg. […] The images shown in FIGS. 1 and 2 were acquired using a Siemens Symbia Intevo camera. Image acquisition times varied between studies from 5-10 minutes.

mannose receptor (CD206) [2] = target: T1, mannose receptor (CD206); conditions: for Mean Joint Specific MARTAD: 5 healthy subjects, IV, 10 mCi 99mTc; for Cutoff Value (MARTAD 2 S.D. above the joint specific mean): from 5 healthy subjects
Protocol: In certain aspects, the pixel intensities of the ROI and RR are used to derive normalized region-specific mannose receptor targeted localization determination (MARTAD) value. The MARTAD value is quantitative index of the amount of imaging agent localization that can be attributable to disease activity in planar images. Defined broadly, the MARTAD value is determined by assessing the ratio of average pixel intensity of the ROI to the average pixel intensity of the RR. In certain alternative embodiments, the MARTAD value is determined by assessing the ratio of maximum pixel intensity of the ROI to the maximum pixel intensity of the RR.
Following MARTAD value determination for a joint or plurality of joints, the MARTAD value can be used to determine macrophage involvement by comparing the MARTAD of the first joint to a normal MARTAD value for a corresponding joint (e.g., RtPIP2 RA vs RtPIP2 healthy). In certain implementations, the normal MARTAD value is determined by aggregating the MARTAD values for each joint from a pool of healthy subjects (e.g., not suffering from RA). In exemplary implementations, the method for defining the joint specific RR in the pool of healthy subjects will be the same as that used for the patient population. Macrophage involvement in a subject is indicated by a joint specific MARTAD value that exceeds the normal MARTAD value by a predetermined threshold. […] In certain alternative implementations, the predetermined threshold subject joint MARTAD value greater above the 95% confidence interval of the average MARTAD value corresponding joint from the plurality of healthy subjects.
as §1
Cutoff values for determination of macrophage involvement in RA inflammation set at MARTAD values greater than 2 S.D. above the joint specific mean.

T1 sequence (P22897 19-1456): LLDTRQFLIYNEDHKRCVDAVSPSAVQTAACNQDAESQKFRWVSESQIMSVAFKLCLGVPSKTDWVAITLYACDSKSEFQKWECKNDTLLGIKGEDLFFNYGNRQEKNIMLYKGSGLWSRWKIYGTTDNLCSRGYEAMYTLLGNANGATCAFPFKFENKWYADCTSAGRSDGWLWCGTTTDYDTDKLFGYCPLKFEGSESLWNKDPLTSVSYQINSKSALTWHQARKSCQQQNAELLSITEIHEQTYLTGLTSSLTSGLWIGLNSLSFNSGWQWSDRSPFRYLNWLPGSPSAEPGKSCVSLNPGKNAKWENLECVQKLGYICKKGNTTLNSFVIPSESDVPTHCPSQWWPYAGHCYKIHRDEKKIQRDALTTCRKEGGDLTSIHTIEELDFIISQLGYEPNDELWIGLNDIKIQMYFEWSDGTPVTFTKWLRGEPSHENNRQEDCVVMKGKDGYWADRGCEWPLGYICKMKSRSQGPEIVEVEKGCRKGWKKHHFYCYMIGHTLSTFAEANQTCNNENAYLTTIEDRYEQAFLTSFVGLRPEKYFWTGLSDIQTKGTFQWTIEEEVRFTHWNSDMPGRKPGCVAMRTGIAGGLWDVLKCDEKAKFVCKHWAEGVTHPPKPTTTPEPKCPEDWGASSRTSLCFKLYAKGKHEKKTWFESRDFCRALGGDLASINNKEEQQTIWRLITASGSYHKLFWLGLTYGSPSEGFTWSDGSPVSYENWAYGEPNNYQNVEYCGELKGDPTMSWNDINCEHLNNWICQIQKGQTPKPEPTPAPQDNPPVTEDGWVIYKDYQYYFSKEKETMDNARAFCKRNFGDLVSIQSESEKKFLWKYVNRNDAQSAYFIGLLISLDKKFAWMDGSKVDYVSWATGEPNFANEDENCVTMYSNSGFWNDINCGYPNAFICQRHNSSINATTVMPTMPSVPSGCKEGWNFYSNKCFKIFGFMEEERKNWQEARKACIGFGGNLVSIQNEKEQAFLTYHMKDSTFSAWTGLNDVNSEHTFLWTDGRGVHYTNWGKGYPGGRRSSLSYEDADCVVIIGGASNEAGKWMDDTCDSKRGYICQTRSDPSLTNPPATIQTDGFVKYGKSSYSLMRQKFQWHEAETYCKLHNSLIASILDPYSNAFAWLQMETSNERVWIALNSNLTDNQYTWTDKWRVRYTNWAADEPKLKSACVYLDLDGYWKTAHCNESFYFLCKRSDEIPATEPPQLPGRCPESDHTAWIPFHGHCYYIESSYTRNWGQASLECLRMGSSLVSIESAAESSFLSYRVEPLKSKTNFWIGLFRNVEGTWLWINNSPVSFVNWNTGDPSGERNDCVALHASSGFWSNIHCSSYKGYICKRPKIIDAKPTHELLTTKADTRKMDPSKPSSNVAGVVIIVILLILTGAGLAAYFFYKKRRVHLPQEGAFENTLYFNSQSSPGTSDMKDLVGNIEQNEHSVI

dextran 3-[(2-aminoethyl)thio]propyl 17-carboxy-10,13,16-tris(carboxymethyl)-8-oxo-4-thia-7,10,13,16-tetraazaheptadec-1-yl 3-[[2-[[1-imino-2-(D-mannopyranosylthio)ethyl]amino]ethyl]thio]propyl ether complexes [Tc99m-tilmanocept]
Sensitivity of MARTAD values to image acquisition time (mannose receptor (CD206) [1]; image acquisition times 5-10 minutes): not sensitive | Effect of mass dose on image quality (mannose receptor (CD206) [1]; mass dose of tilmanocept 125 μg to 400 μg IV, separate studies (not shown)): did not impact image quality | MARTAD values of repeat images versus first images (mannose receptor (CD206) [1]; repeat images 180-240 minutes after injection vs 45-75 minutes, same subjects): statistically similar | Mean Joint Specific MARTAD (mannose receptor (CD206) [2]; MCP1): 0.87 | Cutoff Value (MARTAD 2 S.D. above the joint specific mean) (mannose receptor (CD206) [2]; MCP1): 0.99 | Mean Joint Specific MARTAD (mannose receptor (CD206) [2]; MCP2): 0.86 | Cutoff Value (MARTAD 2 S.D. above the joint specific mean) (mannose receptor (CD206) [2]; MCP2): 1.13 | Mean Joint Specific MARTAD (mannose receptor (CD206) [2]; MCP3): 0.79 | Cutoff Value (MARTAD 2 S.D. above the joint specific mean) (mannose receptor (CD206) [2]; MCP3): 0.93 | Mean Joint Specific MARTAD (mannose receptor (CD206) [2]; MCP4): 0.77 | Cutoff Value (MARTAD 2 S.D. above the joint specific mean) (mannose receptor (CD206) [2]; MCP4): 1.00 | Mean Joint Specific MARTAD (mannose receptor (CD206) [2]; MCP5): 0.76 | Cutoff Value (MARTAD 2 S.D. above the joint specific mean) (mannose receptor (CD206) [2]; MCP5): 1.08 | Mean Joint Specific MARTAD (mannose receptor (CD206) [2]; PIP1): 0.98 | Cutoff Value (MARTAD 2 S.D. above the joint specific mean) (mannose receptor (CD206) [2]; PIP1): 1.21 | Mean Joint Specific MARTAD (mannose receptor (CD206) [2]; PIP2): 1.05 | Cutoff Value (MARTAD 2 S.D. above the joint specific mean) (mannose receptor (CD206) [2]; PIP2): 1.34 | Mean Joint Specific MARTAD (mannose receptor (CD206) [2]; PIP3): 1.03 | Cutoff Value (MARTAD 2 S.D. above the joint specific mean) (mannose receptor (CD206) [2]; PIP3): 1.39 | Mean Joint Specific MARTAD (mannose receptor (CD206) [2]; PIP4): 0.93 | Cutoff Value (MARTAD 2 S.D. above the joint specific mean) (mannose receptor (CD206) [2]; PIP4): 1.19 | Mean Joint Specific MARTAD (mannose receptor (CD206) [2]; PIP5): 0.87 | Cutoff Value (MARTAD 2 S.D. above the joint specific mean) (mannose receptor (CD206) [2]; PIP5): 1.14 | Mean Joint Specific MARTAD (mannose receptor (CD206) [2]; Wrists, images 45-75 min after injection): 1.04 | Cutoff Value (MARTAD 2 S.D. above the joint specific mean) (mannose receptor (CD206) [2]; Wrists): 1.24
